The results in this text go back to patent US11440940B2, “Polymyxin B component or salt thereof, and preparation and application thereof” (SPH NO.1 BIOCHEMICAL & PHARMACEUTICAL CO.,LTD., priority 2020, dated 2022).

Molecules are shown by their SMILES. ≈ marks a conversion by molar mass, not a printed value. Like-named read-outs stand apart in the source and are kept apart here. Where a SMILES comes first, the peptide text is derived from it. Bridges are numbered along the chain shown (N, C = ends). [ ]: non-standard residue; d: D form. The star is where a group is joined. aThr = C[C@H](O)[C@H](N)C(=O)O; X2 = CC[C@@H](C)CC/C=C/C(=O)*; X1 = CC[C@@H](C)CCCCC(=O)*; Dab = NCC[C@H](N)C(=O)O

Assay [1] relates to Pseudomona aeruginosa ATCC27853. Format: cell-based. As for the experimental part: Furthermore, the polymyxin B1 (PMB1) and the 2′,3′-dehydropolymyxin B1 were also determined for MIC against Pseudomona aeruginosa using the microdilution broth method as instructed by CLSI. Similarly, the Pseudomona aeruginosa ATCC27853 (standard strain) was inoculated into a 96-well plate at a density of 10^6 CFU/mL, to which a PMB1 solution (as control) or a 2′,3′-dehydropolymyxin B1 solution was added to a series of final concentrations of 0.125, 0.25, 0.5, 1, 2, 4 and 8 mg/L. The 96-well plate was incubated at […] for 18-24 h, and then observed for the turbidity in each test well, where the lowest concentration of PMB1 or 2′,3′-dehydropolymyxin B1 under which the system in the test well became clear was considered as the corresponding MIC.

Assay [2] has as its system Acinetobacter baumannii ATCC19606. The class given is cell-based. The method, then: Minimal inhibitory concentrations (MIC) of the polymyxin B1 (PMB1) and the 2′,3′-dehydropolymyxin B1 against Acinetobacter baumannii were determined using a microdilution broth method as instructed by Clinical & Laboratory Standards Institute (CLSI). Specifically, Acinetobacter baumannii ATCC19606 (standard strain) was inoculated into a 96-well plate at a density of […], to which a PMB1 solution (as control) or a 2′,3′-dehydropolymyxin B1 solution was added to a series of final concentrations of 0.125, 0.25, 0.5, 1, 2, 4 and 8 mg/L. The 96-well plate was incubated at 35±2° C. for 18-24 h, and then observed for the turbidity in each test well, where the lowest concentration of PMB1 or 2′,3′-dehydropolymyxin B1 under which the system in the test well became clear was considered as the corresponding MIC.

A word on the MIC: it is the lowest concentration that inhibits growth of the organism. A low value points to inhibition by little substance. For `CC[C@@H](C)CCCCC(=O)N[C@@H](CCN)C(=O)N[C@H](C(=O)N[C@@H](CCN)C(=O)N[C@H]1CCNC(=O)[C@H]([C@H](C)O)NC(=O)[C@H](CCN)NC(=O)[C@H](CCN)NC(=O)[C@H](CC(C)C)NC(=O)[C@@H](Cc2ccccc2)NC(=O)[C@H](CCN)NC1=O)[C@H](C)O` [Polymyxin B1, polymyxin B1] (X1-[Dab][aThr][Dab][Dab][Dab][dF]L[Dab][Dab][aThr]; lactam 4-C), the MIC is 1 µg/mL (≈ 0.831 µM) in assay [1] (Pseudomona aeruginosa ATCC27853 (standard strain), 96-well plate, 18-24 h, turbidity) and 1 µg/mL (≈ 0.831 µM) in assay [2] (Acinetobacter baumannii ATCC19606 (standard strain), 96-well plate, 35±2° C., 18-24 h, turbidity).
Consider `CC[C@@H](C)CC/C=C/C(=O)N[C@@H](CCN)C(=O)N[C@H](C(=O)N[C@@H](CCN)C(=O)N[C@H]1CCNC(=O)[C@H]([C@H](C)O)NC(=O)[C@H](CCN)NC(=O)[C@H](CCN)NC(=O)[C@H](CC(C)C)NC(=O)[C@@H](Cc2ccccc2)NC(=O)[C@H](CCN)NC1=O)[C@H](C)O` [2′,3′-dehydropolymyxin B1] (X2-[Dab][aThr][Dab][Dab][Dab][dF]L[Dab][Dab][aThr]; lactam 4-C), for which the MIC in assay [1] (ATCC27853) was 1 µg/mL (≈ 0.832 µM); in assay [2] (ATCC19606), 0.5 µg/mL (≈ 0.416 µM).
